Assay [1] deals with T1, Adenosine receptor A2a (Homo sapiens, UniProt P29274). In words: Displacement of [3H]CGS21680 from human adenosine A2A receptor expressed in HEK293 cells after 60 mins by […] analysis. In kind it is cell-based.
For assay [2], the target named is T2, Adenosine receptor A1 (Homo sapiens) (UniProt P30542).
T2 sequence (whole entry): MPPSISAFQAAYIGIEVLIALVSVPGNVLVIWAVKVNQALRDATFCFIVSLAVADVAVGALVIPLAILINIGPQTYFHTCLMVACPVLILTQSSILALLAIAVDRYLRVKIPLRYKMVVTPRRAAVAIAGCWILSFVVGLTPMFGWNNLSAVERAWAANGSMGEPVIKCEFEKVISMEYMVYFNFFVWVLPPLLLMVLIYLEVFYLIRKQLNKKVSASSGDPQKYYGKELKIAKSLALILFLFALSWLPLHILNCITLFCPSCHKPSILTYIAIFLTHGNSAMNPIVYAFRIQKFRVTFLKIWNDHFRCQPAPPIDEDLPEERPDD
In words: Displacement of [3H]R-PIA from human adenosine A1 receptor expressed in CHO cells at 10 uM after 60 mins by […] analysis relative to control. In kind it is cell-based. (In general: Displacement assays read how much labelled ligand stays bound in the presence of the test substance.)

Assay [3] has as its target T3, Adenosine receptor A3 (Homo sapiens, UniProt P0DMS8).
T3 sequence (P0DMS8 whole entry): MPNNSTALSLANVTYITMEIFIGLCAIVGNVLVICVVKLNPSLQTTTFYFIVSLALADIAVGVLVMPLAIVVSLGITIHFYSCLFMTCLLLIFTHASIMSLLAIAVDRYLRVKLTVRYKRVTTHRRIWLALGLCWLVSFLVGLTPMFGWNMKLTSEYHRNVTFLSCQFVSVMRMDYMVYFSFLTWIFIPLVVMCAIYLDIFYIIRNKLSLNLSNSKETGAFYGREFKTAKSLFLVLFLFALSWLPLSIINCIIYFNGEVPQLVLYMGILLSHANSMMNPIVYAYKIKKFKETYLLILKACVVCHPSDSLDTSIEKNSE
In kind it is cell-based, CHO.

Assay [4] has as its target T1, Adenosine receptor A2a. The assay can be described thus: Displacement of [3H]CGS21680 from human adenosine A2A receptor expressed in HEK293 cells at 10 uM after 60 mins by […] analysis relative to control. In kind it is cell-based.
In assay [5] the target is T3, Adenosine receptor A3. The assay can be described thus: biochemical.
Description: (§1) Displacement of [125I]I-AB-MECA from human adenosine A3 receptor expressed in CHO cells after 90 mins by gamma counting analysis
For assay [6], the target named is T3, Adenosine receptor A3.
Description: Competitive binding affinity to human adenosine A3 receptor expressed in CHO cells after 90 mins by flow cytometric analysis in presence of MRS5449
In assay [7] the target is T3, Adenosine receptor A3. In kind it is cell-based, CHO. This is another data set of the same source.
Assay [8] concerns the target T4, Adenosine receptor A1 (Homo sapiens, UniProt P30542).
T4 sequence (P30542 whole entry): T2 sequence (whole entry)
In words: Displacement of [3H]DPCPX from adenosine A1 receptor in human cortical membranes. In kind it is cell membranes.

Assay [9] addresses T1, Adenosine receptor A2a. In words: Displacement of [3H]CGS21680 from adenosine A2A receptor in human striatal membranes. In kind it is cell membranes, Striatum, Membrane.
Assay [10] addresses T4, Adenosine receptor A1. In words: Antagonist activity at human adenosine A1 receptor expressed in CHO cells coexpressing cAMP response element assessed as inhibition of agonist-induced response by SPAP reporter gene assay in presence of forskolin. In kind it is functional, cell-based.
The target of assay [11] is T2, Adenosine receptor A1 (Homo sapiens). The assay can be described thus: Competitive antagonist activity at GFP-tagged adenosine A1 receptor (unknown origin) expressed in CHO cells assessed as stimulation of inositol phosphate accumulation by scintillation counting analysis. In kind it is functional, cell-based.
Assay [12] shares this target. In words: Competitive antagonist activity at GFP-tagged adenosine A1 receptor (unknown origin) expressed in CHO cells assessed as inhibition of forskolin-stimulated cAMP accumulation by liquid scintillation counting analysis. In kind it is functional, cell-based. For orientation: cAMP levels reflect the balance of adenylyl cyclase and phosphodiesterase activity.
The target is the same in assay [13]. In words: Displacement of [3H]DPCPX from human adenosine A1 receptor expressed in CHO cells up to 0.1 mM after 2 hrs by scintillation counting analysis. In kind it is cell-based.
In assay [14] the target is T3, Adenosine receptor A3. The source holds these as a separate data set.
Description: as §1
Assay [15] addresses T5, Adenosine receptor A1 (Bos taurus, UniProt P28190).
T5 sequence (P28190 whole entry): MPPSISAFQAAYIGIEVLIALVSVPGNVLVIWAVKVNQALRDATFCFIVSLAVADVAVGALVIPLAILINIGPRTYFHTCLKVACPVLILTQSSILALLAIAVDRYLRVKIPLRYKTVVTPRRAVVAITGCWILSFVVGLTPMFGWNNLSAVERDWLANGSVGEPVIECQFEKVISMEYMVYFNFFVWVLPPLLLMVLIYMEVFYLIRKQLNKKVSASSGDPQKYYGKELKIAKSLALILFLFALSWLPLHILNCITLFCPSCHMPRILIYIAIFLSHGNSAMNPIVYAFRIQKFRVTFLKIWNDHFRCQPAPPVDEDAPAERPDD
The assay can be described thus: Displacement of [3H]ADAC from adenosine A1 receptor in bovine cerebral cortical membranes after 120 mins. In kind it is cell membranes.

The target in assay [16] is T6, Adenosine receptor A1 (Rattus norvegicus, UniProt P25099).
T6 sequence (P25099 whole entry): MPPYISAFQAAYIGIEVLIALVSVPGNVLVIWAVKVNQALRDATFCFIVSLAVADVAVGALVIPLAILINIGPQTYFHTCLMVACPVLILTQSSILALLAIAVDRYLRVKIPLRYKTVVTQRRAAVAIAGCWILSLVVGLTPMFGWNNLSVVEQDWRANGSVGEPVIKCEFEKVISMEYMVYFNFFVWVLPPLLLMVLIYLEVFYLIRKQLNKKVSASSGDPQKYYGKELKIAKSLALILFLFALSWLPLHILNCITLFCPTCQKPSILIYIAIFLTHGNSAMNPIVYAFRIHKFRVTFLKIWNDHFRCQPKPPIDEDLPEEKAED
The assay can be described thus: Displacement of [3H]ADAC from adenosine A1 receptor in rat cerebral cortical membranes after 120 mins. In kind it is cell membranes, Membrane.

These results are taken from ChEMBL document CHEMBL2412992, “Fluorescent ligands for adenosine receptors” (Bioorg Med Chem Lett, 2013).

The source made the active and inactive calls. No cut-off for these calls is given here.

T1 sequence (P29274 whole entry): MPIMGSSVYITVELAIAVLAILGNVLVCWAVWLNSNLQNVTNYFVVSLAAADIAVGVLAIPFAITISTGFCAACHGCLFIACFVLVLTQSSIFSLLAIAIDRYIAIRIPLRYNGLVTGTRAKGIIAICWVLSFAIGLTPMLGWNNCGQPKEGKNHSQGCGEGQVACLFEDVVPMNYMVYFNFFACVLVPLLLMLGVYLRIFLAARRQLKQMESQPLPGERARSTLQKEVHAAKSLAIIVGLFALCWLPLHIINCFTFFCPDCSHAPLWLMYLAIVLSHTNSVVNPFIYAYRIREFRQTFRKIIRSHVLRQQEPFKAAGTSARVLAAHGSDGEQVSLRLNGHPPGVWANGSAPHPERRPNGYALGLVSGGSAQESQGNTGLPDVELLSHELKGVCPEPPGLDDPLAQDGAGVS

In the case of `Cn1cc2c(nc(NCCCCCNC(=S)Nc3ccc(C4c5ccc(O)cc5OC5=CC(=O)C=CC54)c(C(=O)O)c3)n3nc(-c4ccco4)nc23)n1` (stereo unspecified), the Ki (usually a measure of affinity in units of concentration, obtained from inhibition or displacement) on Adenosine receptor A2a [1] was 1780 nM; at Adenosine receptor A3 [3] it was 5620 nM. For the same compound, in assay [2], the inhibition (usually the drop in the measured response relative to a control, in per cent) amounted to 9%.
As for `Cn1cc2c(nc(NCCOCCOCCNC(=S)Nc3ccc(C4c5ccc(O)cc5OC5=CC(=O)C=CC54)c(C(=O)O)c3)n3nc(-c4ccco4)nc23)n1` (stereo unspecified), the inhibition in assay [2] was 0%; at Adenosine receptor A2a [4] it was 30%. For the same compound, on Adenosine receptor A3 [3], the Ki was 9550 nM.
As to `CC[C@@H]1CN2C(=O)N(C)c3nc(-c4cc(Cl)cc(Cl)c4Cl)[nH]c3C2=N1`, the Ki on Adenosine receptor A3 [5] was determined as 0.441 nM; at Adenosine receptor A3 [6], 9.54 nM.
As to `CCNC(=O)[C@H]1O[C@@H](n2cnc3c(NCCCCNc4ccc([N+](=O)[O-])c5nonc45)ncnc32)[C@H](O)[C@@H]1O`, the Ki was 389 nM on Adenosine receptor A3 [7], more than 10000 nM on Adenosine receptor A1 [8] and more than 10000 nM at Adenosine receptor A2a [9].
Take `CCNC(=O)[C@H]1O[C@@H](n2cnc3c(NCCCCCCCCNC(=O)COc4ccc(/C=C/C5=[N+]6C(=Cc7ccc(-c8cccs8)n7[B-]6(F)F)C=C5)cc4)ncnc32)[C@H](O)[C@@H]1O`: the dissociation constant (Kd) (commonly the constant that tells how readily two partners part at equilibrium) at Adenosine receptor A1 [10] was 14.1 nM.
`CCNC(=O)[C@H]1O[C@@H](n2cnc3c(NCCCCCCCCCCNc4ccc([N+](=O)[O-])c5nonc45)ncnc32)[C@H](O)[C@@H]1O`: the Ki on Adenosine receptor A3 [7] was 28.2 nM; on Adenosine receptor A1 [8] it was 6460 nM; at Adenosine receptor A2a [9] it was 6170 nM.
For `CCCn1c(=O)c2[nH]c(-c3ccc(OCC(=O)NCCNC(=O)CCCCCNC(=O)COc4ccc(/C=C/C5=[N+]6C(=Cc7ccc(-c8cccs8)n7[B-]6(F)F)C=C5)cc4)cc3)nc2n(CCC)c1=O`, the pKb – broadly, the negative decadic logarithm of the Kb, by convention in mol/L – worked out at 6.5 in assay [11] and 6.4 in [12].
On to `CCCn1c(=O)c2[nH]c(-c3ccc(OCC(=O)NCCNC(=O)CCCCCCC(=O)NCCNC(=O)CCC4=[N+]5C(=Cc6c(C)cc(C)n6[B-]5(F)F)C=C4)cc3)nc2n(CCC)c1=O`, for which the result in [13] was inactive.
As to `Nc1nc2ccc(Cl)cc2c2nc(-c3ccco3)nn12` [CGS-15943], the affinity at Adenosine receptor A3 [14], expressed as Ki, was 35 nM.
On to `CCNC(=O)[C@H]1O[C@@H](n2cnc3c(NCCCCNC(=O)CCCCCCCNS(=O)(=O)c4cccc5c(N(C)C)cccc45)ncnc32)[C@H](O)[C@@H]1O`, for which the outcome in assay [13] was inactive.
Take `CCCn1c(=O)c2[nH]c(-c3ccc(OCC(=O)NCCNC(=S)Nc4ccc(C5c6ccc(O)cc6OC6=CC(=O)C=CC65)c(C(=O)O)c4)cc3)nc2n(CCC)c1=O` (stereo unspecified): the Ki at Adenosine receptor A1 [15] is 9.33 nM; at Adenosine receptor A1 [16] it was 126 nM.
As for `CCNC(=O)[C@H]1O[C@@H](n2cnc3c(NCCCCNC(=O)CCC4=[N+]5C(=Cc6c(C)cc(C)n6[B-]5(F)F)C=C4)ncnc32)[C@H](O)[C@@H]1O`, in assay [13], the outcome was inactive.
Consider `CCNC(=O)[C@H]1O[C@@H](n2cnc3c(NCCCNC(=O)COc4ccc(/C=C/C5=[N+]6C(=Cc7ccc(-c8cccs8)n7[B-]6(F)F)C=C5)cc4)ncnc32)[C@H](O)[C@@H]1O`, for which the Kd on Adenosine receptor A1 [10] was 16.2 nM.
`O=C(Cc1ccc(NC(=O)Cc2ccc(Nc3ncnc4c3ncn4[C@@H]3O[C@H](CO)[C@@H](O)[C@H]3O)cc2)cc1)NCCNc1ccc([N+](=O)[O-])c2nonc12`: the Ki is 1.62 nM on Adenosine receptor A1 [15] and 4.37 nM on Adenosine receptor A1 [16].
